According to PubChem BioAssay (NCI):
Where “and” joins values, the source holds several entries; their conditions need not be identical. Identical values can stand only once.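 Five concentrations, 48 hours, 96-well plates. GI50: concentration for 50% inhibition of growth. At the TGI there is no net growth.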

Experiments:
Experiment in all cases: DTP human tumour cell line panel, 48 h
[1] = tested on: SNB-75 CNS
[2] = tested on: SN12C renal
[3] = tested on: PC-3 prostate
[4] = tested on: TK-10 renal
[5] = tested on: HOP-62 NSCLC
[6] = tested on: HCT-116 colon
[7] = tested on: NCI-H522 lung
[8] = tested on: MDA-N
[9] = tested on: HCC-2998 colon
[10] = tested on: M14 melanoma
[11] = tested on: HOP-92 NSCLC
[12] = tested on: HCT-15 colon
[13] = tested on: OVCAR-5 ovarian
[14] = tested on: SK-MEL-28 melanoma
[15] = tested on: 786-0 renal
[16] = tested on: KM12 colon
[17] = tested on: UACC-257 melanoma
[18] = tested on: MDA-MB-435
[19] = tested on: EKVX NSCLC
[20] = tested on: OVCAR-8 ovarian
[21] = tested on: ACHN renal
[22] = tested on: NCI-H23 lung
[23] = tested on: K-562 leukemia
[24] = tested on: HS 578T breast
[25] = tested on: OVCAR-4 ovarian
[26] = tested on: SW-620 colon
[27] = tested on: SF-295 CNS
[28] = tested on: SF-539 CNS
[29] = tested on: IGROV1 ovarian
[30] = tested on: MDA-MB-231 breast
[31] = tested on: RPMI-8226 leukemia
[32] = tested on: A498 renal
[33] = tested on: MALME-3M melanoma
[34] = tested on: U251 CNS
[35] = tested on: A549 NSCLC
[36] = tested on: NCI-H460 lung
[37] = tested on: NCI/ADR-RES ovarian
[38] = tested on: NCI-H226 lung
[39] = tested on: CAKI-1 renal
[40] = tested on: MCF7 breast
[41] = tested on: SK-MEL-2 melanoma
[42] = tested on: T-47D breast
[43] = tested on: HL-60(TB) leukemia
[44] = tested on: LOX IMVI melanoma
[45] = tested on: COLO 205 colon
[46] = tested on: CCRF-CEM leukemia
[47] = tested on: UO-31 renal
[48] = tested on: SF-268 CNS
[49] = tested on: MOLT-4 leukemia
[50] = tested on: SK-OV-3 ovarian
[51] = tested on: OVCAR-3 ovarian
[52] = tested on: HT29 colon
[53] = tested on: UACC-62 melanoma
[54] = tested on: BT-549 breast
[55] = tested on: SNB-19 CNS
[56] = tested on: RXF 393 renal
[57] = tested on: SR leukemia
[58] = tested on: SK-MEL-5 melanoma
[59] = tested on: DU-145 prostate
[60] = tested on: KM20L2 colon
[61] = tested on: DMS 273 small cell lung
[62] = tested on: LXFL 529 NSCLC
[63] = tested on: XF 498 CNS
[64] = tested on: M19-MEL melanoma
[65] = tested on: DLD-1 colon
[66] = tested on: DMS 114 small cell lung

CCOC(=O)c1[nH]c(Br)c(-c2ccc(Br)cc2)c1Br
GI50 [1]: 0.461 µM | TGI [1]: 2.68 µM and 4.41 µM | GI50 [2]: 0.502 µM | TGI [2]: 4.75 µM | GI50 [3]: 1.25 µM | TGI [3]: 15.5 µM | GI50 [4]: 2.34 µM | TGI [4]: 9.99 µM and 11.3 µM | GI50 [5]: 0.514 µM | TGI [5]: 4.74 µM and 2.81 µM | GI50 [6]: 0.445 µM | TGI [6]: 1.92 µM and 10.6 µM | GI50 [7]: 0.178 µM | TGI [7]: 3.42 µM and 0.52 µM | GI50 [8]: 0.0979 µM | TGI [8]: 0.505 µM and 0.273 µM | GI50 [9]: 11.6 µM | TGI [9]: > 100 µM | TGI [10]: 17.9 µM | GI50 [11]: 1.58 µM | TGI [11]: 7.86 µM and 7.98 µM | GI50 [12]: 0.25 µM | TGI [12]: > 100 µM | GI50 [13]: 5.77 µM | TGI [13]: > 100 µM | TGI [14]: 22.1 µM | GI50 [15]: 0.535 µM | TGI [15]: 1.92 µM and 2.72 µM | GI50 [16]: 0.302 µM | TGI [16]: 16 µM | GI50 [17]: 0.597 µM | TGI [17]: 42.9 µM | GI50 [18]: 0.0997 µM | TGI [18]: 0.546 µM and 0.289 µM | GI50 [19]: 0.852 µM | TGI [19]: 17.3 µM | TGI [20]: 2.65 µM and 2.42 µM | GI50 [21]: 0.929 µM | TGI [21]: 3.63 µM and 8.45 µM | GI50 [22]: 2.48 µM | TGI [22]: 6.94 µM and 14.3 µM | GI50 [23]: 0.193 µM | TGI [23]: 1.12 µM | TGI [24]: 13.2 µM | TGI [25]: 3.6 µM and 3.5 µM | TGI [26]: 14 µM | GI50 [27]: 0.145 µM | TGI [27]: 0.763 µM and 0.815 µM | GI50 [28]: 0.298 µM | TGI [28]: 1.85 µM and 0.858 µM | GI50 [29]: 0.851 µM | TGI [29]: 6.34 µM | GI50 [30]: 0.782 µM | TGI [30]: 7.07 µM | GI50 [31]: 0.357 µM | TGI [31]: 3.92 µM | GI50 [32]: 0.288 µM | TGI [32]: 5.28 µM and 1.22 µM | GI50 [33]: 0.46 µM | TGI [33]: 15.8 µM | GI50 [34]: 0.394 µM | TGI [34]: 3.55 µM and 1.93 µM | GI50 [35]: 8.15 µM | TGI [35]: 29.8 µM | TGI [36]: > 100 µM | GI50 [37]: 0.407 µM | TGI [38]: 6.88 µM | GI50 [39]: 0.49 µM | TGI [39]: 3.06 µM and 2.62 µM | GI50 [40]: 0.895 µM | TGI [40]: > 100 µM | TGI [41]: 2.53 µM | GI50 [42]: 2.66 µM | TGI [42]: 65.7 µM | GI50 [43]: 0.207 µM | TGI [43]: 0.596 µM | GI50 [44]: 0.641 µM | TGI [44]: 5.29 µM and 12.4 µM | TGI [45]: 2.54 µM and 1.85 µM | GI50 [46]: 0.278 µM | TGI [46]: 1.11 µM | GI50 [47]: 1.13 µM | TGI [47]: 5.71 µM and 8.57 µM | GI50 [48]: 0.836 µM | TGI [48]: 34.8 µM | TGI [49]: 11.4 µM | GI50 [50]: 0.967 µM | TGI [50]: 6.28 µM | GI50 [51]: 0.37 µM | TGI [51]: 0.759 µM and 1.61 µM | TGI [52]: 1.32 µM and 1.62 µM | GI50 [53]: 0.362 µM | GI50 [54]: 8.52 µM | GI50 [55]: 0.454 µM | TGI [55]: 10.4 µM | TGI [56]: 8.14 µM | GI50 [57]: 0.199 µM | TGI [57]: 11.1 µM | TGI [58]: 19.1 µM | GI50 [59]: 2.19 µM | TGI [59]: 55.8 µM

COc1ccc(C(=O)Cc2c(C(=O)c3ccccc3)c3ccccc3n2C(=O)c2ccccc2)cc1
TGI [1]: 99.6 µM | TGI [60]: > 100 µM | TGI [4]: > 100 µM | TGI [5]: > 100 µM | TGI [6]: > 100 µM | TGI [7]: > 100 µM | TGI [61]: > 100 µM | TGI [9]: > 100 µM | TGI [10]: > 100 µM | TGI [11]: > 100 µM | TGI [12]: > 100 µM | TGI [13]: > 100 µM | TGI [14]: > 100 µM | TGI [15]: > 100 µM | TGI [62]: > 100 µM | TGI [16]: > 100 µM | TGI [17]: > 100 µM | TGI [20]: > 100 µM | TGI [21]: > 100 µM | TGI [22]: > 100 µM | TGI [23]: > 100 µM | TGI [25]: > 100 µM | TGI [26]: > 100 µM | TGI [27]: > 100 µM | TGI [28]: > 100 µM | TGI [29]: > 100 µM | TGI [31]: 70.9 µM | TGI [33]: > 100 µM | TGI [34]: > 100 µM | TGI [35]: > 100 µM | TGI [36]: > 100 µM | TGI [63]: > 100 µM | TGI [38]: > 100 µM | TGI [39]: > 100 µM | TGI [64]: > 100 µM | TGI [41]: > 100 µM | TGI [43]: > 100 µM | TGI [45]: > 100 µM | TGI [46]: > 100 µM | TGI [47]: > 100 µM | TGI [65]: > 100 µM | TGI [48]: > 100 µM | TGI [49]: > 100 µM | TGI [66]: > 100 µM | TGI [51]: > 100 µM | TGI [52]: > 100 µM | TGI [53]: > 100 µM | TGI [55]: > 100 µM | TGI [57]: > 100 µM | TGI [58]: 64.3 µM
